Assay results reported in US11633397B2, “Use of modulators of CCR5 in the treatment of cancer and cancer metastasis” (priority 2012, dated 2023).
Like-named read-outs stand apart in the source and are kept apart here.

What was measured:
[1] = tested on: MDA-MB-231 cells; test: MTT cell viability assay; assay type: cell-based, human; details: increasing concentrations, 48 hours
Excerpt: In FIG. 6A, there is shown the effect of CCR5 antagonist on breast cancer cell viability. […] Graph is from a representative experiment carried out by sextuplicate. No statistical differences were found (ANOVA) in 3 independent experiments. In FIG. 6B, there is shown CCR5 expression in MDA-MB-231 cells stably transfected with pcDNA3.1+/Zeo+ (MDA.Vector) or human CCR5 cloned into pCDNA3+Zeo+ (MDA.CCR5). […] Representative experiment from 2 carried out by sextuplicate. […] Thus, the reduction in tumor mass in the lungs is due to the inhibition of “homing” or spread of tumors to the lung. […] Cells expressing eGFP were counted in 3 random fields of 2 different histologic sections (separated 700 μm from each other) per mouse (n=5 mice per group). Statistical analysis was conducted using Student t test. Bar in micrographs, 100 μm.
The MTT assay is a colorimetric assay for measuring the activity of cellular enzymes that reduce the tetrazolium dye, 3-(4,5-Dimethylthiazol-2-yl)-2,5-diphenyltetrazolium bromide, a yellow tetrazole (MTT), to its insoluble formazan, giving a purple color. […]
The effects of CCR5 antagonists on cell viability and proliferation rate were estimated using the soluble tetrazolium salt MTT assay (29). […] Then, the reduced (insoluble and colored) formazan was dissolved in DMSO and measured spectrophotometrically at 570 nm. […]

[2] = tested on: SUM-159 breast cancer cells; test: FBS-induced 3D invasion into collagen gels, SUM-159; assay type: cell-based, human; details: SUM-159 cells; 100 nmol/L; 5% FBS as chemoattractant
Protocol: (§1) In FIG. 4A, there is shown 3D reconstruction of FBS-induced invasion into collagen gels by Hs578T breast cancer cells in presence of CCR5 antagonists (100 nmol/L). In FIG. 3C there is shown 3D reconstruction of FBS-induced invasion into collagen gels by SUM-159 breast cancer cells in presence of CCR5 antagonists (100 nmol/L).
(§2) The 3-dimensional invasion assay was conducted as previously reported (12). Briefly, 100 μL of 1.67 mg/mL Rat Tail collagen type I (BD Biosciences) was pipetted into the top chamber of a 24-well 8-μm pore Transwell (Corning). The Transwell was incubated at 37° C. overnight to allow the collagen to solidify. A total of 30,000 cells were then seeded on the bottom of the Transwell membrane and allowed to attach. Serum-free growth medium was placed into the bottom chamber, whereas 15 ng/mL CCL5 or 5% FBS was used as a chemoattractant in the medium of the upper chamber. The cells were then chemoattracted across the filter through the collagen above for 3 days. Cells were fixed in 4% formaldehyde, permeabilized with 0.2% Triton-X in PBS, and then stained with 40 μg/mL propidium iodide (PI) for 2 hours. Fluorescence was analyzed by confocal z-sections (one section every 20 μm) at ×10 magnification from the bottom of the filter using a Zeiss LSM 510 Meta inverted confocal microscope at the Kimmel Cancer Center Bioimaging Facility. […]

[3] = tested on: Hs578T breast cancer cells; test: FBS-induced 3D invasion into collagen gels, Hs578T; assay type: cell-based, human; details: 100 nmol/L, 5% FBS as chemoattractant
Protocol: as §1, §2

[4] = target: CCR5 (Homo sapiens, UniProt P51681); test: CCL5-induced calcium signaling (Fluo-4-AM intracellular calcium assay) in MDA-MB-231 cells; assay type: cell-based; details: antagonist 100 nmol/L for 30 minutes before addition of CCL5
Protocol: Micrographs illustrate the axis (x-x′) of the pseudoline scan plot. Those axes were used to construct the adjacent intensity versus time plots. […] The data in FIGS. 3B and 3D are mean±SEM of 3 to 4 independent experiments. Statistical analysis was conducted using the Student t test.
Calcium responses induced either by CCL5 or FBS in human cancer cell lines were monitored under fluorescence confocal microscope as previously reported (28). Briefly, breast cancer cells were seeded in 4-well labtek chambers (Nunc) at 10^4 cells/cm^2 and incubated for 1 day. After 12-hour starvation, cells were labeled by incubating them with […] Fluo-4-AM (Molecular Probes) in HBSS for 30 minutes, washed twice, and incubated for additional 30 minutes before imaging under the microscope. Time-lapse images were collected using a Zeiss LSM 510 Meta inverted confocal microscope with the incubator at 37° C. Relative intracellular Ca^2+ concentration was determined by the changes in fluorescent intensity (FI) of Fluo-4-AM upon the addition of CCL5 (60 ng/mL) or FBS (5%) and was calculated as (FIt−FI0)/FI0.
The importance of CCR5 in HIV infection led to the development of different drugs that target this receptor.

[5] = mice; 16 mg/kg; cited from earlier work
[6] = humans; oral dose of 300 mg; cited from earlier work
[7] = tested on: MDA.pFULG cells; test: Homing assay: lung colonization 24 hours after injection of MDA.pFULG cells; assay type: in vivo, mice; details: 10 administrations (twice a day for 5 days) before i.v. injection of cells; lungs 24 hours after injection
Excerpt: (§3) In FIG. 6A, there is shown the effect of CCR5 antagonist on breast cancer cell viability. […] Graph is from a representative experiment carried out by sextuplicate. No statistical differences were found (ANOVA) in 3 independent experiments. In FIG. 6B, there is shown CCR5 expression in MDA-MB-231 cells stably transfected with pcDNA3.1+/Zeo+ (MDA.Vector) or human CCR5 cloned into pCDNA3+Zeo+ (MDA.CCR5). […] Representative experiment from 2 carried out by sextuplicate. […] Thus, the reduction in tumor mass in the lungs is due to the inhibition of “homing” or spread of tumors to the lung. […] Cells expressing eGFP were counted in 3 random fields of 2 different histologic sections (separated 700 μm from each other) per mouse (n=5 mice per group). […]
(§4) MB-MDA-231 cells expressing Luc2-eGFP (called MDA.pFLUG for the rest of the article) were detached with a nonenzymatic cell dissociation buffer (4 mmol/L EDTA in Ca^2+ and Mg^2+-free PBS), resuspended in Dulbecco's PBS without Ca^2+ and Mg^2+ and immediately injected into the tail vein of 8-week-old, female nonobese diabetic/severe combined immunodeficient (NOD/SCID) mice (NCI, Bethesda Md.). […] Data are expressed as total photon flux and were analyzed using Living Image 3.0 software (Caliper Life Sciences). […] Cryosections (10 μm) were counterstained with 4′,6-diamidino-2-phenylindole analyzed by confocal microscopy. […]

[8] = tested on: MDA-MB-231 cells (MDA.pFULG) pulmonary metastases; test: Experimental lung metastasis assay (tail vein injection of MDA.pFULG cells, BLI, histology); assay type: in vivo, NOD/SCID mice
Protocol: In FIG. 5A, MDA-MB-231 cells transduced with Luc2-eGFP fusion protein were injected into the tail vein of NOD/SCID mice and the in vivo bioluminescent signal was quantified weekly. […] Tumor area was quantified with the Nikon Elements BR 3.0 software analyzing at low magnification (×40) 2 random fields of 2 different histologic sections (separated 600 μm from each other) per mouse. Statistical analysis was conducted using the Student t test with Welch correction for heterogeneous variances (n=33 and 12 for control and treated groups, respectively).
MB-MDA-231 cells expressing Luc2-eGFP (called MDA.pFLUG for the rest of the article) were detached with a nonenzymatic cell dissociation buffer (4 mmol/L EDTA in Ca^2+ and Mg^2+-free PBS), resuspended in Dulbecco's PBS without Ca^2+ and Mg^2+ and immediately injected into the tail vein of 8-week-old, female nonobese diabetic/severe combined immunodeficient (NOD/SCID) mice (NCI, Bethesda Md.). Each mouse received 10^6 cells. […] Treatment was started immediately after injection or 10 days later for the experiments analyzing the proliferation of established metastasis. For in vivo bioluminescence imaging (BLI), mice were given an intraperitoneal (i.p.) injection with 200 μL of d-luciferin (30 mg/mL). Mice were anesthetized with isoflurane (2% in 1 L/min oxygen), and bioluminescence images were acquired 10 to 15 minutes after d-luciferin injection using the IVIS XR system (Caliper Life Sciences). Acquisition times ranged from 10 seconds (for later time points) to 5 minutes (for early time points). Data are expressed as total photon flux and were analyzed using Living Image 3.0 software (Caliper Life Sciences). For ex vivo BLI, d-luciferin was diluted in PBS to a final concentration of 300 μg/mL and used to soak freshly isolated lungs for 2 to 3 minutes before imaging. Some lungs were stained with India ink, as previously reported (33), or processed and stained with hematoxylin and eosin to corroborate the presence of pulmonary tumors. For homing assays, mice were euthanized 24 hours after the intravenous injection of MDA.pFULG cells. Lungs were perfused with PBS, fixed with freshly prepared formaldehyde (4% in PBS), and frozen in optimum cutting temperature (Sakura Finetek). Cryosections (10 μm) were counterstained with 4′,6-diamidino-2-phenylindole analyzed by confocal microscopy. Animal experiments were approved by the Thomas Jefferson University's Institutional Animal Care and Use Committee.
MDA-MB-231 cells transduced within the Luc2-eGFP lentiviral vector (MDA.pFULG cells) were used in an experimental metastasis model. The Luc2 gene is a codon-optimized version of Luc and cells expressing this reporter were 10 to 100 times brighter than the unmodified Luc gene (30). […]

[9] = tested on: MDA-MB-231 cells (MDA.pFULG) established pulmonary metastasis; test: Growth of established pulmonary metastasis (treatment started 10 days after cell injection); assay type: in vivo, NOD/SCID mice; details: 8 mg/kg every 12 hours; treatment initiated 10 days after injection of cells
Excerpt: as §3, §4

[10] = 8 mg/kg twice daily, oral gavage

CCR5, sequence (P51681 whole entry): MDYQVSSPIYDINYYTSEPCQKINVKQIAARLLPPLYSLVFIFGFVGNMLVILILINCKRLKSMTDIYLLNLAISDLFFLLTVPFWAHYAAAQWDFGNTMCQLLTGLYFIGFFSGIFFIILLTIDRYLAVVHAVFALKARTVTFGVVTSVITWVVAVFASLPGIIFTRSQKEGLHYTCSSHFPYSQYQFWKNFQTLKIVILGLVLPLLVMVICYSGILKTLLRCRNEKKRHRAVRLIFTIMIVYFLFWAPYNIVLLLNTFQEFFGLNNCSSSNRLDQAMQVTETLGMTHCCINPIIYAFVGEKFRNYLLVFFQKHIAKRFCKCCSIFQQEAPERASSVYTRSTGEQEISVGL

| inhibition of CCL5-induced calcium responses [4] | Compound | cell viability (MTT reduction) [1] | FBS-induced breast cancer cell invasion [2] | FBS-induced breast cancer cell invasion [3] | Cmax [5] | Cmax [6] | reduction of the number of eGFP cells in the lungs [7] | fraction of treated mice with detectable metastatic tumors [8, 10] | reduction of mean size of metastatic tumors (lung histology) [8, 10] | number and size of pulmonary metastases compared with vehicle-treated mice ([8]; 8 mg/kg twice daily, oral gavage, weekly BLI for 5 weeks) | pulmonary tumor burden ([8]; 16 mg/kg/d divided into 2 doses) | tumor growth of established pulmonary metastasis (in vivo BLI) [9] |
| --- | --- | --- | --- | --- | --- | --- | --- | --- | --- | --- | --- | --- |
| 90% | COC[C@@H](c1ccc(C(F)(F)F)cc1)N1CCN(C2(C)CCN(C(=O)c3c(C)ncnc3C)CC2)C[C@@H]1C [vicriviroc, (4,6-dimethylpyrimidin-5-yl)-[4-[(3S)-4-[(1R)-2-methoxy-1-[4-(trifluoromethyl)phenyl]ethyl]-3-methylpiperazin-1-yl]-4-methylpiperidin-1-yl]methanone] | did not affect the MTT reduction | inhibited FBS-induced breast cancer cell invasion | inhibited FBS-induced breast cancer cell invasion | – | – | – | – | – | – | – | – |
| 65% | Cc1nnc(C(C)C)n1[C@@H]1C[C@H]2CC[C@@H](C1)N2CC[C@H](NC(=O)C1CCC(F)(F)CC1)c1ccccc1 [maraviroc, 4,4-difluoro-N-[(1S)-3-[(1R,5S)-3-(3-methyl-5-propan-2-yl-1,2,4-triazol-4-yl)-8-azabicyclo[3.2.1]octan-8-yl]-1-phenylpropyl]cyclohexane-1-carboxamide] | did not affect the MTT reduction | inhibited FBS-induced breast cancer cell invasion | inhibited FBS-induced breast cancer cell invasion | 1040 nM | 1200 nM | 40% | 50% | 65% | significant reduction | significantly reduced | did not modify tumor growth |
